Consider twelve compounds from patent publication US20230011869A1 (Hoffmann-La Roche Inc., priority 2018, published 2023).

Where a name gives a salt, the structure may show the parent alone. Read-outs that look alike come from different tables or passages of the source.

The subject of the test is Acinetobacter baumannii ATCC17961. Briefly: Antimicrobial susceptibility testing: 90% growth inhibitory concentration (IC90) determination, Iso-Sensitest broth. It is filed as cell-based. Conditions: Acinetobacter baumannii, ATCC17961, 16 h, read-out: ATCC17961 IC90. The method, boiled down: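 Growth followed by optical density at 600 nm every 20 minutes for 16 h at 35±2° C, with inhibition assessed in log phase to give IC90. Compounds tested as twofold dilution series (e.g. 50 to 0.097 μM final) against 5×10^(5) CFU/ml in Iso-Sensitest medium.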

Where [1] appears, read: 90% growth inhibitory concentration, Acinetobacter baumannii ATCC17961, Iso-Sensitest broth, OD 600 nm over 16 h.

As usually defined, the IC90 is the concentration at which the effect reaches the 90% level. As to `C#CCOc1ccc(-c2cnc3c(Nc4ccc(C(=O)N5CCC(CN)CC5)c(C)c4)nccn23)c(F)c1F` [Example 121, [4-(aminomethyl)-1-piperidyl]-[4-[[3-(2,3-difluoro-4-prop-2-ynoxy-phenyl)imidazo[1,2-a]pyrazin-8-yl]amino]-2-methyl-phenyl]methanone; formic acid], the IC90 under setting [1] worked out at 33 nM.

Regarding `Cc1cc(Nc2nccn3c(-c4ccc(OCC#N)c(F)c4Cl)cnc23)ccc1C(=O)N1CCN(C(=O)[C@H]2CCNC[C@H]2O)CC1` [Example 222, 2-[3-chloro-2-fluoro-4-[8-[4-[4-[(3S,4S)-3-hydroxypiperidine-4-carbonyl]piperazine-1-carbonyl]-3-methyl-anilino]imidazo[1,2-a]pyrazin-3-yl]phenoxy] acetonitrile formate], under setting [1], the IC90 worked out at 38 nM.

Regarding `CCc1cc(Nc2nccn3c(-c4ccc(OC(F)F)c(F)c4F)cnc23)ccc1C(=O)N1CCC(C(=O)N2CC3(CNC3)C2)CC1` [Example 591, (4-(2,6-diazaspiro[3.3]heptane-2-carbonyl)piperidin-1-yl)(4-((3-(4-(difluoromethoxy)-2,3-difluorophenyl)imidazo[1,2-a]pyrazin-8-yl)amino)-2-ethylphenyl)methanone 2,2,2-trifluoroacetate formate], the IC90 amounted to 52 nM.

For the compound `Cc1cc(Nc2nccn3c(-c4ccc(OCC#N)c(F)c4F)cnc23)ccc1C(=O)N1CCN(C(=O)[C@@H]2C[C@@H](O)CN2)CC1` [Example 200, 2-[2,3-difluoro-4-[8-[4-[4-[(2S,4R)-4-hydroxypyrrolidine-2-carbonyl]piperazine-1-carbonyl]-3-methyl-anilino]imidazo[1,2-a]pyrazin-3-yl]phenoxy] acetonitrile formate], the IC90 under setting [1] was 67 nM.

`COc1ccc(-c2cnc3c(Nc4ccc(C(=O)N5CCN(C(=O)[C@H]6NC[C@H](O)[C@@H]6O)CC5)c(C)c4)nccn23)c(F)c1F` [Example 234, (4-(4-((3-(2,3-difluoro-4-methoxyphenyl)imida-zo[1,2-a]pyrazin-8-yl)amino)-2-methylbenzoyl)piper-azin-1-yl)((2S,3R,4S)-3,4-dihydroxypyrrolidin-2-yl)methanone]: the IC90 under setting [1] stood at 133 nM.

Consider `COc1ccc(-c2cnc3c(Nc4ccc(C(=O)N5CCN(C(=O)[C@H]6C[C@H](O)CN6)CC5)c(C)c4)nccn23)c(F)c1F` (racemic) [Example 228, [4-[[3-(2,3-difluoro-4-methoxy-phenyl)imidazo[1,2-a]pyrazin-8-yl]amino]-2-methyl-phenyl]-[4-[rac-(2R,4S)-4-hydroxy-pyrrolidine-2-carbonyl]piperazin-1-yl]methanone], for which the IC90 under setting [1] came to 104 nM.

On to `COc1ccc(-c2cnc3c(Nc4ccc(C(=O)N5CCN(C(=O)[C@H](CCCN)NC(=O)[C@@H](N)CCC(=O)O)CC5)c(C)c4)nccn23)c(F)c1F` [Example 535, (4S)-4-amino-5-[[2S)-5-amino-1-[4-[4-[[3-(2,3-difluoro-4-methoxyphenyl)imidazo[1,2-a]pyrazin-8-yl]amino]-2-methylbenzoyl]piperazin-1-yl]-1-oxopentan-2-yl]amino]-5-oxopentanoic acid; hydrochloride], for which the concentration for an effect of 90% (IC90) under setting [1] turned out to be 1920 nM.

For the compound `COc1ccc(-c2cnc3c(Nc4ccc(C(=O)N5CCN(C(=O)[C@@H]6C[C@](C)(O)CN6)CC5)c(C)c4)nccn23)c(F)c1F` [Example 455, [4-[[3-(2,3-difluoro-4-methoxyphenyl)imidazo[1,2-a]pyrazin-8-yl]amino]-2-methylphenyl]-[4-[(2S,4S)-4-hydroxy-4-methylpyrrolidine-2-carbonyl]piperazin-1-yl]methanone; formic acid], the IC90 stood at 66 nM.

Turning to `Cc1cc(Nc2nccn3c(-c4ccc(OCC#N)c(Cl)c4)cnc23)ccc1C(=O)N1CCN(C(=O)[C@@H]2C[C@@H](O)CN2)CC1` [Example 94, 2-(2-chloro-4-(8-((4-(4-((2S,4R)-4-hydroxypyrrolidin-2-carbonyl)piperazine-1-carbonyl)-3-methylphenyl)amino)imidazo[1,2-a]pyrazin-3-yl)phenoxy)acetonitrile], the IC90 under setting [1] was found to be 69 nM.

For the compound `Cc1cc(Nc2nccn3c(-c4ccc(OCC#N)c(F)c4Cl)cnc23)ccc1C(=O)N1CCN(C(=O)C2(O)CCNCC2)CC1` [Example 214, 2-[3-chloro-2-fluoro-4-[8-[4-[4-(4-hydroxypiperidine-4-carbonyl)piperazine-1-carbonyl]-3-methyl-anilino]imidazo[1,2-a]pyrazin-3-yl]phenoxy] acetonitrile formate], the IC90 under setting [1] amounted to 41 nM.

Take `COC[C@@H]1CN[C@H](C(=O)N2CCN(C(=O)c3ccc(Nc4nccn5c(-c6ccc(OC)c(F)c6F)cnc45)cc3C)CC2)C1` [Example 84, (4-(4-((3-(2,3-difluoro-4-methoxyphenyl)imidazo[1,2-a]pyrazin-8-yl)amino)-2-methylbenzoyl)piperazin-1-yl)((2S,4S)-4-(methoxymethyl)pyrrolidin-2-yl)methanone hydrochloride]: the IC90 was 76 nM.

Turning to `COc1ccc(-c2cnc3c(Nc4ccc(C(=O)NC5CCC(NC(=O)[C@H]6C[C@H](O)CN6)C5)c(C)c4)nccn23)c(F)c1F` (mixture of isomers) [Example 458, rac-(2R,4S)-N-[3-[[4-[[3-(2,3-difluoro-4-methoxyphenyl)imidazo[1,2-a]pyrazin-8-yl]amino]-2-methylbenzoyl]amino]cyclo-pentyl]-4-hydroxypyrrolidine-2-carboxamide], the IC90 under setting [1] is 81 nM.
